Patent US10335400B2, “Treatment of tauopathies with mGluR5 antagonists” (priority 2014, dated 2019)

What was measured:
Assay type in all cases: cell-based
PP2A [1] = assay: PP2A activity (phosphatase ELISA) and PP2Ac protein level in BMAA-treated mouse mixed primary neuronal cultures; details: BMAA 100 μM to 1 mM, 3-48 h
Procedure: Mouse hippocampal neuronal cultures were prepared from d 18 embryos as previously described (1). Briefly, C57BL/6 pregnant female mice from Charles River Laboratories were killed by cervical dislocation. All studies were performed in accordance with the recommendations in the Guide for the Care and Use of Laboratory Animals of the National Institutes of Health (2). The protocol was approved by Institutional Animal Care and Use Committee of the New York Institute for Basic Research in Developmental Disabilities. All surgeries were performed under anesthesia, and all efforts were made to minimize suffering. Embryos were removed and placed in cold Hibernate A (BrainBits, LLC), and all the following steps were performed in ice-cold Hibernate A, under a stereoscopic (dissection) microscope placed in a laminar flow hood. Fetal brains were removed carefully, and forebrains were separated. The hippocampus, including the cortex surrounding the area of the hippocampus, was dissected and cut into small pieces using microsurgical scissors. […]
PP2A activity was assayed with homogenate of rat brain slices using the phosphatase ELISA described previously (5). […] Finally 75 μL of 3,3′,5,5′-Tetramethylbenzidine substrate reagent (Sigma) was added, and the colorimetric development was measured using a microtiter plate reader at a wavelength of 650 nm. […]

PP2A [2] = assay: PP2A activity (phosphatase ELISA) in rat brain slices; details: brain slices incubated with BMAA 1 mM for 2 h in artificial cerebrospinal fluid
Procedure: (§1) Male Wistar rats (Charles River Laboratories), 2-3 months old, were anesthetized by i.p. injection with 50 mg/kg Nembutal. The animals were decapitated when deeply anesthetized. The brains were removed immediately and cooled in ice-cold (4° C.) oxygenated artificial cerebrospinal fluid (aCSF) consisting of 126 mM NaCl, 3.5 mM KCl, 1.2 mM NaH2PO4, 1.3 mM MgCl2, 2 mM CaCl2, 11 mM D(+) glucose, and 25 mM NaHCO3 (pH 7.4) for 7-8 min. Each brain then was divided sagittally, and 400-μm-thick coronal slices were made with a Camden Vibraslicer (WP, Inc.). The slices were transferred into a chamber containing the oxygenated aCSF and were incubated at 33° C. for 2 h in the presence or absence of 1 mM, β-N ? methylamino-L-alanine (BMAA) dissolved in 10 mM NaHCO3 (Sigma). The oxygenation of the aCSF was carried out by bubbling the solution with a mixture of 95% O2 and 5% CO2 during the entire procedure. At the end of incubation, the brain slices were homogenized with homogenizing buffer [50 mM Tris·HCl (pH 7.4), 8.5% (wt/vol) sucrose, 2 mM EDTA, 2 mM EGTA, 10 mM (3-mercaptoethanol, 5 mM benzamidine, 0.5 mM 4-(2-Aminoethyl) benzenesulfonyl fluoride hydrochloride (AEBSF), 4 μg/mL pepstatin A, and 10 μg/mL each of aprotinin and leupepin] at a ratio of 9.0 mL buffer/1.0 g tissue slices. The homogenates were divided into two parts. One part was centrifuged at 16,000×g for 10 min, and the resulting supernatant was used to assay protein phosphatase 2A (PP2A) activity. Into the other half, an equal volume of phosphatase-inhibitor mixture (20 mM 3-glycerophosphate, 2 mM Na3VO4, and 100 mM NaF) was added immediately, and the samples were used for Western blots.

tau = assay: Tau phosphorylation (Western blots) in metabolically active rat brain slices; details: 1 mM BMAA, 2-3 h, adult Wistar rat brain slices
Procedure: as §1
Protein was fractionated by 10% SDS/PAGE, transferred to PVDF membrane, and then blocked with 5% skim milk for 1 h at room temperature. The membrane was probed with anti-IPP2A (5G6, 1:1, 500) (7), anti-I2P2A (10E7, 1:1, 600) (7), anti-tau ˜92e; 1:5,000) (8), anti-tau (R134d; 1:5 000) (9), anti-tau pSer^262/^356 (12E8; 1:500) (10, anti-tau pSer^199, anti-tau pThr^205, anti-tau pThr^212, and pSer^396 (1:1,000) (Biosource), anti-GAPDH (1:2,000) (Santa Cruz Biotechnology), anti-PP2Ac (1:10 000) (BD Transduction Lab), anti pY^307-PP2A and anti-DML^309-PP2A (1:1,000) (Millipore), anti-GSK-3(α/β), anti-pS^9-GSK-3 β, anti-ERK1/2, anti-pT^202/Y^204-ERK1/2, anti-MEK1/2, anti-p9^17/221-MEK1/2, anti-CAMKII, anti-pT^286-CAMKII, anti-p70 S6 kinase, anti-pT^389-p70 S6 kinase, anti-SAPK/JNK, and anti-pT^183/Y^185-SAPK/JNK (1:1,000) (Cell Signaling Technology). The membrane then was incubated with HRP-conjugated secondary antibody (Jackson ImmunoResearch). The protein bands were detected with the enhanced chemiluminescence reagents (Thermo Scientific). Band intensity was measured by Multi-Gauge V3 software (Fuji Photo Film).

`CNC[C@H](N)C(=O)O` [BMAA, β-N-methylamino-L-alanine] was tested, and the PP2A activity (PP2A [1]) was “significantly decreased”, the PP2A activity (PP2A [2]) was “significant inhibition” and the “increase in phosphorylation of tau at Ser199” value (tau) was 2.6 fold. For the same molecule, the “increase in phosphorylation of tau at Ser262/356” value (tau) was 3.4 fold, the “increase in phosphorylation of tau at Thr205” value (tau) was 1.8 fold and the “increase in phosphorylation of tau at Thr212” value (tau) was 3.7 fold. The “phosphorylation of tau at Ser396” value (tau) was “not any significant change”.
